Reference: publication PMC8119899, “A Single Mutation in the Outer Lipid-Facing Helix of a Pentameric Ligand-Gated Ion Channel Affects Channel Function Through a Radially-Propagating Mechanism” (Frontiers in Molecular Biosciences, 2021)
Residue numbers refer to the chain shown, from its start.

Key:
[1] = target: T1, 5-HT3A receptor K255A (Mus musculus, UniProt P23979, K282A); assay: Two-electrode voltage clamp, 5-HT response, K255A receptor in Xenopus oocytes; type: cell-based; conditions: mean and SEM, n ≥ 3
T1 sequence (P23979 24-489 K282A): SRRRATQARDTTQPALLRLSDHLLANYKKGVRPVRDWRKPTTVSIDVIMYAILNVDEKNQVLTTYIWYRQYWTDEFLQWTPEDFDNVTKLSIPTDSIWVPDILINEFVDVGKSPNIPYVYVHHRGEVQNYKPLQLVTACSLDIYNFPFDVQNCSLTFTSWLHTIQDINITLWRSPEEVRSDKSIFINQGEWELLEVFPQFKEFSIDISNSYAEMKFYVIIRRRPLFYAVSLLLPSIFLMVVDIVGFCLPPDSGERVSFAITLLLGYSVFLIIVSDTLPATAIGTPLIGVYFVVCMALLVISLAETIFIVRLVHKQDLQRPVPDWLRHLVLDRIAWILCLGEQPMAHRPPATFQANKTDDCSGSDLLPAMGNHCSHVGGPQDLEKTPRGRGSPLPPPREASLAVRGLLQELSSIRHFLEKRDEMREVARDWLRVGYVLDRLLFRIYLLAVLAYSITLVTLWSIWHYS
Protocol: (§1) The mouse 5-HT3A cDNA (Q6J1J7) in pcDNA3.1 (for HEK cell transfection) or pGEMHE (for RNA production) was modified by QuikChange site-directed mutagenesis (Agilent Technologies) to create point mutants (verified by sequencing).
(§2) Xenopus laevis oocytes from EcoCyte Biosciences (Austin Texas) were injected with 100 pg cRNA (generated with the ThermoFisher mMESSAGE mMACHINE T7 transcription kit) and left in injection media [88 mM NaCl, 2.4 mM NaHCO3, 1 mM KCl, 0.82 mM MgSO4 ·7H20, 5 mM Tris-HCl, 0.33 mM Ca(NO3)2·4H2O, 0.41 mM CaCl2·2H2O, 2.51 mM sodium pyruvate, 0.12 mg/ml theophylline, 0.05 mg/ml gentamicin, pH 7.5] at 16 °C for 24 h. […] The holding potential was −60 mV, using glass microelectrodes with a resistance of approximately 1 MΩ backfilled with 3M KCl.

[2] = target: T2, 5-HT3A receptor Y441A (Mus musculus, UniProt P23979, Y468A); parameters: expressed in transfected cells; method as in Mesoy et al., [2019]; conditions: HEK293 cells, ref Mesoy et al., [2019]; cited from earlier work
T2 sequence (P23979 24-489 Y468A): T1 sequence (P23979 24-489 K282A) with A259K, Y445A

[3] = target: T3, 5-HT3A receptor C290A (Mus musculus, UniProt P23979, C317A); assay: FlexStation membrane potential dye, 5-HT response, C290A receptor in HEK293 cells; type: cell-based; parameters: expressed in transfected cells; host or cells: HEK293; conditions: mean and SEM, n ≥ 3
T3 sequence (P23979 24-489 C317A): T1 sequence (P23979 24-489 K282A) with A259K, C294A
Protocol: as §1
(§3) Human embryonic kidney (HEK) 293 cells were maintained at 37 °C at 5% CO2 in a humidified atmosphere, in Dulbecco's Modified Eagle's Medium/Nutrient Mix F12 (1:1) (Invitrogen, Paisley, UK) with GlutaMAX^TM and 10% fetal bovine serum (GE Healthcare) (DMEM/FBS) and passaged when confluent.
(§4) As described previously (Price and Lummis, [2005]) cells were incubated for 45 min with fluorescent membrane potential-sensitive dye (Membrane Potential Blue kit, Molecular Devices) diluted in Flex buffer (10 mM HEPES, 115 mM NaCl, 1 mM KCl, 1 mM CaCl2, 1 mM MgCl2, and 10 mM glucose, pH 7.4), and subsequently assayed at room temperature for 180 s, with readings every 2 s. […] (log of the concentration of ligand), a is the minimum response, b is the maximum response, and nH is the Hill slope.

[4] = target: T1, 5-HT3A receptor K255A; assay: FlexStation membrane potential dye, 5-HT response, K255A receptor in HEK293 cells; type: cell-based; parameters: expressed in transfected cells; host or cells: HEK293; conditions: mean and SEM, n ≥ 3
Protocol: as §1, §3, §4

[5] = target: T2, 5-HT3A receptor Y441A; assay: Two-electrode voltage clamp, 5-HT response, Y441A receptor in Xenopus oocytes; type: cell-based; parameters: expressed in transfected cells; host or cells: Xenopus laevis oocytes (cRNA injection); conditions: mean and SEM, n ≥ 3
Protocol: as §1, §2

NCCc1c[nH]c2ccc(O)cc12 [5-HT]
nH [1]: 1.9 ± 0.5 | response to application of 5-HT [2]: Neither Y441A nor D238A responded | nH [3]: 1.2 ± 0.2 | nH [4]: 2.6± 0.1 | nH [5]: 1.0 ± 0.1
